Format in all cases: in vivo, human
Assay [1] is described as follows: Sensory evaluation of tomato soups with and without the compound. Conditions: compound added at 2 g/L; 6 g tomato base powder in 500 mL hot water. On the procedure: 1-Deoxy-D-fructosyl-N-β-alanyl-L-histidine or alternatively 1-deoxy-D-fructosyl-N-β-alanyl-N-methyl-L-histidine was added at 2 g/L to the soups.
The nature of assay [2]: Sensory evaluation of chicken soups with and without the compound. The settings on record: compound added at 2 g/L; chicken base powder 6 g and 1 g monosodium glutamate in 500 mL hot water; 12 panelists. On the procedure:
Chicken soups were prepared by dissolving 6 g chicken base powder (detailed recipe shown in Table 3) and 1 g monosodium glutamate in 500 mL hot water. 1-Deoxy-D-fructosyl-N-β-alanyl-L-histidine or alternatively 1-deoxy-D-fructosyl-N-β-alanyl-N-methyl-L-histidine was added at 2 g/L.
The sensory evaluation was carried out by 12 panelists, previously screened for their sensory abilities. The panelists were asked to taste a set of 2 chicken soups, one containing no 1-deoxy-D-fructosyl-N-β-alanyl-L-histidine and one containing 1-deoxy-D-fructosyl-N-β-alanyl-L-histidine (2 g/L). If sensory differences were observed, the panelists were asked to describe them.
The same sensory evaluation was carried out with the chicken soup samples with and without containing 1-deoxy-D-fructosyl-N-β-alanyl-N-methyl-L-histidine at 2 g/L broth.

Assay [3] is described as follows: Taste threshold concentration in model broth, three-alternative test by sensory panel. The settings on record: thick-sour sensation and white-meaty oral impression, value in brackets. Here is the method:
The sensory tests were performed in a sensory panel room at 20-25° C. To avoid a retro-nasal aroma or taste impression, nose clips were used. The sensory panel consisted of 8 to 14 trained persons. The panel was trained to evaluate the taste of aqueous solutions (1 mL each) of the following standard taste compounds by using a triangle test: saccharose (50 mmol/L) and L-alanine (15 mmol/L), respectively, for sweet taste; lactic acid (20 mmol/L) for sour taste; NaCl (12 mmol/L) for salty taste; caffeine (1 mmol/L) and quinine hydrochloride (0.05 mmol/L), respectively, for bitter taste; sodium glutamate (8 mmol/L, pH 5.7) for umami taste; and tannin (0.05%) for astringency. The “white meaty” oral sensations was assessed in a model broth solution prepared from monosodium glutamate monohydrate (1.9 g/L), yeast extract (2.1 g/L), maltodextrin (6.375 g/L) and sodium chloride (2.9 g/L) in bottled water (pH 5.9).
The taste threshold concentration of β-alanyl-L-histidine was determined in the model broth using a three-alternative test with two blanks and one sample in ascending concentrations of β-alanyl-L-histidine.
This taste threshold value is considerably lower than the 22′700 μmol/L (5.3 mg/g) threshold level determined for the corresponding β-alanyl-L-histidine under the same experimental model system (see Example 5). […]

Each structure is given as a SMILES string.

The results in this text go back to patent US10781232B2, “Sugar-dipeptide conjugates as flavor molecules” (NESTEC S.A., priority 2015, dated 2020).

Take `Cn1cncc1C[C@H](NC(=O)CCNCC(=O)[C@@H](O)[C@H](O)[C@H](O)CO)C(=O)O` [1-deoxy-D-fructosyl-N-β-alanyl-N-methyl-L-histidine]: the “sensory panel conclusion on flavour of tomato soup” value in assay [1] is listed as “increased significantly the savory, spicy notes”. The “sensory panel conclusion on flavour of chicken soup” value in assay [2] is “significantly increased the boiled chicken and meaty flavours”.

Consider `NCCC(=O)N[C@@H](Cc1c[nH]cn1)C(=O)O` [β-alanyl-L-histidine], for which the taste threshold concentration in assay [3] is 5.3 mg/g.
